Measured values taken from ChEMBL document CHEMBL4823284, “Design, synthesis and biological evaluation of double fatty chain-modified glucagon-like peptide-1 conjugates” (Bioorg Med Chem, 2021).
Activity calls are given as the source filed them. The rule behind the calls is not given here.

Columns and labels:
Albumin = Albumin (Homo sapiens, UniProt P02768); assay: Binding affinity to albumin (unknown origin) after 8 hrs by HPLC analysis; type: ADME; set-up: concentration or dose not given beside the values; settings: isolated protein
[1] = Toxicity in mouse assessed as change in body weight at 30 nmol/kg, sc measured at 1.5 hrs; type: organism-based; settings: in vivo
[2] = biological target: T1, Glucagon-like peptide 1 receptor (Homo sapiens, UniProt P43220); assay: Activation of GLP1R (unknown origin) CRE-bla expressed in CHO-K1 cells assessed as receptor potency incubated for 1 hrs by time resolved fluorescence resonance energy transfer immunoassay; type: functional, cell-based
[3] = biological target: T1, Glucagon-like peptide 1 receptor; assay: Binding affinity to GLP1R (unknown origin) assessed as binding rate constant by surface plasmon resonance analysis; settings: filed as activator
[4] = biological target: T1, Glucagon-like peptide 1 receptor; assay: Binding affinity to GLP1R (unknown origin) assessed as dissociation rate constant by surface plasmon resonance analysis
[5] = biological target: T1, Glucagon-like peptide 1 receptor; assay: Binding affinity to GLP1R (unknown origin) assessed as equilibrium constant by surface plasmon resonance analysis; settings: filed as activator
Mus musculus [6] = assay: Hypoglycemic effect in intragastric starch treated mouse assessed as reduction in blood glucose level at 30 nmol/kg, sc measured at 1.5 hrs; type: functional, organism-based
Mus musculus [7] = assay: Hypoglycemic effect in intragastric starch treated mouse assessed as reduction in blood glucose level at 30 nmol/kg, sc measured up to 24 hrs; type: functional, organism-based; settings: time hrs <=24
Mus musculus [8] = assay: Hypoglycemic effect in intragastric starch treated mouse assessed as decrease in glucose AUC at 30 nmol/kg, sc measured up to 24 hrs; type: functional, organism-based; settings: time hrs <=24

T1 sequence (P43220 whole entry): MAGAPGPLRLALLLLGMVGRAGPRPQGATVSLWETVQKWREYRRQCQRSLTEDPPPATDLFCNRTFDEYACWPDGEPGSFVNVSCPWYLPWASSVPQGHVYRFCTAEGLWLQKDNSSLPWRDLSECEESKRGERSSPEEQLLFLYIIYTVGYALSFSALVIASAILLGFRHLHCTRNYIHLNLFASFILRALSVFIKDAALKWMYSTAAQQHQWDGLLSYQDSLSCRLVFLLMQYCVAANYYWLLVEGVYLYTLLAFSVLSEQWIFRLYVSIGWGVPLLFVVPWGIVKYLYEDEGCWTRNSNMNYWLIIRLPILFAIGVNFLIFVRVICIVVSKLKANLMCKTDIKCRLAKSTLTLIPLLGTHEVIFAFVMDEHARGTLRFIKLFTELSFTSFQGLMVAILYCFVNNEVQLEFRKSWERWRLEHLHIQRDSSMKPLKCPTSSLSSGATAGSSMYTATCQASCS
Sequence of Albumin (P02768 whole entry): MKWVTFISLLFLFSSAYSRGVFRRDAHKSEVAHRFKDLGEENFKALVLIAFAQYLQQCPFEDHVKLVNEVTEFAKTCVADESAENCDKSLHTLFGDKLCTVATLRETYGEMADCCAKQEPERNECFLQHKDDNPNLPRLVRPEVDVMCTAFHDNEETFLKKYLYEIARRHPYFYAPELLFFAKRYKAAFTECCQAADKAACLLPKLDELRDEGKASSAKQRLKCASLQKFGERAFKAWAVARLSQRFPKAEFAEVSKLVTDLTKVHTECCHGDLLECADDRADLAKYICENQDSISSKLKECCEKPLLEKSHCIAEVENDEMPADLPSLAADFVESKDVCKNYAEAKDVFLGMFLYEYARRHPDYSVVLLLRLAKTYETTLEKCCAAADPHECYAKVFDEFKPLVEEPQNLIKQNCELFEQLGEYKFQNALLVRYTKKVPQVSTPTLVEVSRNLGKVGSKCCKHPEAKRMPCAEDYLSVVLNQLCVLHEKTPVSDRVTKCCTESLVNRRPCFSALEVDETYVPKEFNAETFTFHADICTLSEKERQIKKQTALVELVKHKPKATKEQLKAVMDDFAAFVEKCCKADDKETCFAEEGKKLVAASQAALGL

Row | Compound | Activity (Albumin) [%] | Activity [1] | EC50 [2] [nM] | Ka [3] | Dissociation rate constant (koff) [4] | Ke [5] | Activity (Mus musculus [6]) | Activity (Mus musculus [7]) | Activity (Mus musculus [8])
1 | SEMAGLUTIDE [listing 1 of 2 here] | > 99 | Toxic | – | – | – | – | – | – | –
2 | CCCCCCCCCCCCCCCC(=O)N[C@@H](CCC(=O)NCCCC[C@H](NC(=O)CC[C@H](NC(=O)CCCCCCCCCCCCCCC)C(=O)O)C(=O)NCCOCCOCC(=O)O)C(=O)O | – | – | 0.0723 | – | – | – | – | – | –
3 | CCCCCCCCCCCC(=O)N[C@@H](CCC(=O)NCCCC[C@H](NC(=O)CC[C@H](NC(=O)CCCCCCCCCCC)C(=O)O)C(=O)NCCOCCOCC(=O)NCCOCCOCC(=O)NCCOCCOCC(=O)O)C(=O)O | 91.6 | Toxic | 0.0051 | 3.26 10^3/M/s | 2.37 10^-2/s | 7.25 10^-6M | Active | Active | Active
4 | CCCCCCCCCCCCCC(=O)N[C@@H](CCC(=O)NCCCC[C@H](NC(=O)CC[C@H](NC(=O)CCCCCCCCCCCCC)C(=O)O)C(=O)NCCOCCOCC(=O)NCCOCCOCC(=O)O)C(=O)O | – | Toxic | 0.0066 | – | – | – | – | – | Active
5 | CCCCCCCCCCCC(=O)N[C@@H](CCC(=O)NCCCC[C@H](NC(=O)CC[C@H](NC(=O)CCCCCCCCCCC)C(=O)O)C(=O)NCCOCCOCC(=O)O)C(=O)O | > 99 | Toxic | 0.0142 | 1.11 10^3/M/s | 6.5 10^-3/s | 5.85 10^-6M | Active | Active | Active
6 | CCCCCCCCCCCCCC(=O)N[C@@H](CCC(=O)NCCCC[C@H](NC(=O)CC[C@H](NC(=O)CCCCCCCCCCCCC)C(=O)O)C(=O)NCCOCCOCC(=O)NCCOCCOCC(=O)NCCOCCOCC(=O)O)C(=O)O | – | Toxic | 0.0016 | – | – | – | Active | Active | Active
7 | CCCCCCCCCCCC(=O)N[C@@H](CCC(=O)NCCCC[C@H](NC(=O)CC[C@H](NC(=O)CCCCCCCCCCC)C(=O)O)C(=O)NCCOCCOCC(=O)NCCOCCOCC(=O)O)C(=O)O | 94.3 | Toxic | 0.0101 | 5.97 10^2/Ms | 8.57 10^-3/s | 1.44 10^-5M | Active | Active | Active
8 | CCCCCCCCCCCCCCCC(=O)N[C@@H](CCC(=O)NCCCC[C@H](NC(=O)CC[C@H](NC(=O)CCCCCCCCCCCCCCC)C(=O)O)C(=O)NCCOCCOCC(=O)NCCOCCOCC(=O)O)C(=O)O | – | – | 0.0788 | – | – | – | – | – | –
9 | SEMAGLUTIDE [listing 2 of 2 here] | – | – | – | 9.24 10^4/Ms | – | 1.33 10^-6M | Active | Active | Active
10 | CCCCCCCCCCCCCCCC(=O)N[C@@H](CCC(=O)NCCCC[C@H](NC(=O)CC[C@H](NC(=O)CCCCCCCCCCCCCCC)C(=O)O)C(=O)NCCOCCOCC(=O)NCCOCCOCC(=O)NCCOCCOCC(=O)O)C(=O)O | – | – | 0.0274 | – | – | – | – | – | –
11 | CCCCCCCCCC(=O)N[C@@H](CCC(=O)NCCCC[C@H](NC(=O)CC[C@H](NC(=O)CCCCCCCCC)C(=O)O)C(=O)NCCOCCOCC(=O)NCCOCCOCC(=O)O)C(=O)O | 90.2 | – | 0.2 | – | – | – | – | – | –
12 | CCCCCCCCCC(=O)N[C@@H](CCC(=O)NCCCC[C@H](NC(=O)CC[C@H](NC(=O)CCCCCCCCC)C(=O)O)C(=O)NCCOCCOCC(=O)NCCOCCOCC(=O)NCCOCCOCC(=O)O)C(=O)O | 86 | – | 0.132 | – | – | – | – | – | –
13 | CCCCCCCCCCCCCC(=O)N[C@@H](CCC(=O)NCCCC[C@H](NC(=O)CC[C@H](NC(=O)CCCCCCCCCCCCC)C(=O)O)C(=O)NCCOCCOCC(=O)O)C(=O)O | – | Toxic | 0.0096 | – | – | – | Active | Active | –
14 | CCCCCCCCCC(=O)N[C@@H](CCC(=O)NCCCC[C@H](NC(=O)CC[C@H](NC(=O)CCCCCCCCC)C(=O)O)C(=O)NCCOCCOCC(=O)O)C(=O)O | 94.5 | – | 0.143 | – | – | – | – | – | –
